Measured values published in patent US12250947B2, “Substituted azaspiro-cycles as herbicides” (SYNGENTA CROP PROTECTION AG, priority 2019, dated 2025).

Legend:
Format in all cases: in vivo
Conditions in all cases: 250 g/Ha, evaluated after 13 days
[1] = tested on: Echinochloa crus-galli (ECHCG); experiment: Herbicidal glasshouse test, pre-emergence, ECHCG
Procedure: (§1) Seeds of a variety of test species are sown in standard soil in pots (Lolium perenne (LOLPE), Setaria faberi (SETFA), Alopecurus myosuroides (ALOMY), Echinochloa crus-galli (ECHCG), Avena fatua (AVEFA)). […] Compounds are applied at 250 g/h. The test plants are then grown in a glasshouse under controlled conditions in a glasshouse (at 24/16° C., day/night; 14 hours light; 65% humidity) and watered twice daily. After 13 days for pre and post-emergence, the test is evaluated for the percentage damage caused to the plant. […] NT=not tested.

[2] = tested on: Setaria faberi (SETFA); experiment: Herbicidal glasshouse test, pre-emergence, SETFA
Procedure: as §1

[3] = tested on: Lolium perenne (LOLPE); experiment: Herbicidal glasshouse test, pre-emergence, LOLPE
Procedure: as §1

[4] = tested on: Avena fatua (AVEFA); experiment: Herbicidal glasshouse test, pre-emergence, AVEFA
Procedure: as §1

[5] = tested on: Alopecurus myosuroides (ALOMY); experiment: Herbicidal glasshouse test, pre-emergence, ALOMY
Procedure: as §1

[6] = tested on: Setaria faberi (SETFA); experiment: Herbicidal glasshouse test, post-emergence, SETFA
Procedure: as §1

[7] = tested on: Lolium perenne (LOLPE); experiment: Herbicidal glasshouse test, post-emergence, LOLPE
Procedure: as §1

[8] = tested on: Avena fatua (AVEFA); experiment: Herbicidal glasshouse test, post-emergence, AVEFA
Procedure: as §1

[9] = tested on: Alopecurus myosuroides (ALOMY); experiment: Herbicidal glasshouse test, post-emergence, ALOMY
Procedure: as §1

[10] = tested on: Echinochloa crus-galli (ECHCG); experiment: Herbicidal glasshouse test, post-emergence, ECHCG
Procedure: as §1

Compound | percentage damage caused to the plant, five-point scale, ECHCG [1] | percentage damage caused to the plant, five-point scale, SETFA [2] | percentage damage caused to the plant, five-point scale, LOLPE [3] | percentage damage caused to the plant, five-point scale, AVEFA [4] | percentage damage caused to the plant, five-point scale, ALOMY [5] | percentage damage caused to the plant, five-point scale, SETFA [6] | percentage damage caused to the plant, five-point scale, LOLPE [7] | percentage damage caused to the plant, five-point scale, AVEFA [8] | percentage damage caused to the plant, five-point scale, ALOMY [9] | percentage damage caused to the plant, five-point scale, ECHCG [10]
CC#Cc1cc(C)c(C2C(=O)CC3(CCN(C(=O)C(=O)Nc4ccccn4)CC3)CC2=O)c(C)c1 [Compound A6] | 5 (5=80-100%) | 5 (5=80-100%) | 4 (4=60-79%) | 4 (4=60-79%) | 2 (2=20-39%) | 5 (5=80-100%) | 5 (5=80-100%) | 5 (5=80-100%) | 5 (5=80-100%) | 5 (5=80-100%)
CC#Cc1cc(C)c(C2C(=O)CC3(CCN(C(=O)C(=O)NC)CC3)CC2=O)c(C)c1 [Compound A4, 2-[9-(2,6-dimethyl-4-prop-1-ynyl-phenyl)-8,10-dioxo-3-azaspiro[5.5]undecan-3-yl]-N-methyl-2-oxo-acetamide] | 5 (5=80-100%) | 5 (5=80-100%) | 5 (5=80-100%) | 5 (5=80-100%) | 4 (4=60-79%) | 5 (5=80-100%) | 5 (5=80-100%) | 5 (5=80-100%) | 5 (5=80-100%) | 5 (5=80-100%)
CC#Cc1cc(C)c(C2C(=O)CC3(CCN(C(=O)C(=O)N(C)C)CC3)CC2=O)c(C)c1 [Compound A5] | 5 (5=80-100%) | 5 (5=80-100%) | 5 (5=80-100%) | 4 (4=60-79%) | 5 (5=80-100%) | 5 (5=80-100%) | 5 (5=80-100%) | 5 (5=80-100%) | 5 (5=80-100%) | 5 (5=80-100%)
CC#Cc1cc(C)c(C2C(=O)CC3(CCN(C(=O)C(=O)NC(C)(C)C)CC3)CC2=O)c(C)c1 [Compound A9, N-tert-butyl-2-[9-(2,6-dimethyl-4-prop-1-ynyl-phenyl)-8,10-dioxo-3-azaspiro[5.5]undecan-3-yl]-2-oxo-acetamide] | 5 (5=80-100%) | 5 (5=80-100%) | 5 (5=80-100%) | 5 (5=80-100%) | 5 (5=80-100%) | 5 (5=80-100%) | 5 (5=80-100%) | 5 (5=80-100%) | 4 (4=60-79%) | 5 (5=80-100%)
CC#Cc1cc(C)c(C2=C(OC(=O)OC)CC3(CCN(C(=O)C(C)=O)CC3)CC2=O)c(C)c1 [Compound P1, [9-(2,6-dimethyl-4-prop-1-ynyl-phenyl)-10-oxo-3-(2-oxopropanoyl)-3-azaspiro[5.5]undec-8-en-8-yl] methyl carbonate] | 5 (5=80-100%) | 5 (5=80-100%) | 5 (5=80-100%) | 5 (5=80-100%) | 5 (5=80-100%) | 5 (5=80-100%) | 5 (5=80-100%) | 5 (5=80-100%) | 5 (5=80-100%) | 5 (5=80-100%)
CC#Cc1cc(C)c(C2C(=O)CC3(CCN(C(=O)C(=O)C(C)(C)C)CC3)CC2=O)c(C)c1 [Compound A7] | 5 (5=80-100%) | 5 (5=80-100%) | 5 (5=80-100%) | 3 (3=40-59%) | 3 (3=40-59%) | 5 (5=80-100%) | 5 (5=80-100%) | 5 (5=80-100%) | 5 (5=80-100%) | 5 (5=80-100%)
CC#Cc1cc(C)c(C2C(=O)CC3(CCN(C(=O)C(=O)OCC)CC3)CC2=O)c(C)c1 [Compound A2] | 4 (4=60-79%) | 5 (5=80-100%) | 3 (3=40-59%) | 1 (1=0-19%) | 0 | 5 (5=80-100%) | 5 (5=80-100%) | 4 (4=60-79%) | 4 (4=60-79%) | 5 (5=80-100%)
CC#Cc1cc(C)c(C2C(=O)CC3(CCN(C(=O)C(N)=O)CC3)CC2=O)c(C)c1 [Compound A8] | 5 (5=80-100%) | 5 (5=80-100%) | 5 (5=80-100%) | 5 (5=80-100%) | 5 (5=80-100%) | 5 (5=80-100%) | 5 (5=80-100%) | 5 (5=80-100%) | 5 (5=80-100%) | 5 (5=80-100%)
